Test results as given in publication PMC4649711, “In1-ghrelin splicing variant is overexpressed in pituitary adenomas and increases their aggressive features” (Scientific Reports, 2015).
pEC50: −log10 of the molar value. “Also recorded” adds a separate entry of the source. Residues, ends and D or L forms follow the SMILES beside them. *: point of attachment. Octanoyl = CCCCCCCC(=O)*

Assays:
NFPAs = assay: cell viability of NFPAs after In1-ghrelin silencing; format: cell-based, human; conditions: siRNA 100 nM vs scramble, 24 and 48 h, alamar-blue, n = 2
Excerpt: (§1) To perform overexpression experiments, ghrelin sequence was purchased, cloned in pCMV-Sport6-vector (Harvard Cancer Center, Boston, MA, USA) and was subcloned into the expression vector pCDNA3.1+ (Life Technologies, Grand Island, NY, USA). In1-ghrelin sequence was PCR-amplified (In1-Hind-Up: 5′-[…]-3′ and In1-Bam-Low: 5′-[…]-3′) and cloned into pCDNA3.1+. Empty pCDNA3.1+ (mock) was used in all the experiments as negative control. For silencing experiments, a battery of custom-designed siRNAs specifically targeted against the unique In1-ghrelin mRNA sequence was chemically synthesized by Life Technologies and their efficiency, specificity and appropriate concentration tested in human cell lines expressing In1-ghrelin (MDA-MB-231 breast cancer cell line and LnCAP prostate cancer cell line) (data not shown). […]
(§2) As previously reported, cell viability was estimated using alamar-blue reagent (10,000 cells/well-plate; Biosource International, Camarillo, CA, USA)[30][50][52]. […] Reduction of alamar-blue reagent was quantified exciting at 560 nm and reading at 590 nm using the FlexStation III system (Molecular Devices, Sunnyvale, CA, USA). […]

In1-ghrelin mRNA = assay: silencing of In1-ghrelin mRNA expression; format: cell-based, human; conditions: qPCR; for silencing of In1-ghrelin expression: human cell lines MDA-MB-231 and LnCAP (data not shown) or representative pituitary tumor validation (Figure 6G)
Excerpt: To perform overexpression experiments, ghrelin sequence was purchased, cloned in pCMV-Sport6-vector (Harvard Cancer Center, Boston, MA, USA) and was subcloned into the expression vector pCDNA3.1+ (Life Technologies, Grand Island, NY, USA). In1-ghrelin sequence was PCR-amplified (In1-Hind-Up: 5′-[…]-3′ and In1-Bam-Low: 5′-[…]-3′) and cloned into pCDNA3.1+. Empty pCDNA3.1+ (mock) was used in all the experiments as negative control. For silencing experiments, a battery of custom-designed siRNAs specifically targeted against the unique In1-ghrelin mRNA sequence was chemically synthesized by Life Technologies and their efficiency, specificity and appropriate concentration tested in human cell lines expressing In1-ghrelin (MDA-MB-231 breast cancer cell line and LnCAP prostate cancer cell line) (data not shown). […] As a negative control, a commercial, validated negative control (scramble) was used in all the experiments, which according to the manufacturer's instructions, has no significant sequence similarity to murine or human gene sequences (Silencer Select Negative Control No. 1 siRNA, Life Technologies, […], NY, USA).
For transfection assays (overexpression or silencing), 200,000–500,000 cells were seeded on 6-well plates in serum containing medium during 24–36 h. Then, medium was replaced with antibiotic-antimycotic free medium. For overexpression experiments, 100 ng/50,000 cell of ghrelin or In1-ghrelin plasmid was diluted in 50 μL of Opti-MEM and, 0.5 μL of Lipofectamine 2000 (Life Technologies) were separately diluted in another 50 μL of Opti-MEM. Both solutions were incubated for 5 minutes at room temperature and then, were mixed and incubated for 30 minutes at room temperature. After this incubation period, the solution (total of 100 μL) was added to the cells/per well. For silencing experiments, 7.5 μL of Lipofectamine RNAiMAX (Life Technologies) was diluted in 100 μL of Opti-MEM and, 100 nM of In1-ghrelin siRNA was separately diluted in another 100 μL of Opti-MEM. […]

GH-omas = assay: cell viability of GH-omas after In1-ghrelin silencing; format: cell-based, human; conditions: siRNA 100 nM vs scramble, 24 and 48 h, alamar-blue, n = 2
Excerpt: as §1, §2

recombinant human GHSR1b = biological target: T1, recombinant human GHSR1b (Homo sapiens, UniProt Q92847); assay: calcium signaling activation in GHSR1b-transfected CHO-K1 cells; format: cell-based; conditions: Calcium 4 kit, FLIPR Tetra, 37°C dye loading 1 h, dose-response, GraphPad Prism, read-out: Half-maximal Calcium signaling activation (EC50)
T1 construct: expressed in transfected cells; host or cells: CHO-K1 (ATCC CCL-61), stably transfected
T1 sequence (Q92847 1-289 isoform Q92847-2): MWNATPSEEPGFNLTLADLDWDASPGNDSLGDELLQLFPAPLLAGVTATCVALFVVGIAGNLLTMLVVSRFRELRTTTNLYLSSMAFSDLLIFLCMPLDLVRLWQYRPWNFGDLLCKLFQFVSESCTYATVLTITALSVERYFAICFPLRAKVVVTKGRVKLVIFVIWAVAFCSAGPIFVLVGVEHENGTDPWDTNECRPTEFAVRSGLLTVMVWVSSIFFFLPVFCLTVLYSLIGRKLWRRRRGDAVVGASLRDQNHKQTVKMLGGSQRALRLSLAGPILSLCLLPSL
Protocol: Changes in [Ca^2+]i in CHO-K1 cell line expressing recombinant GHSR1a or GHSR1b receptor were measured using Calcium 4 Explorer Kit (Molecular Devices, Sunnyvale, CA, USA). Briefly, cells were incubated at 37°C, 5% CO2 overnight in growth media. After 24 hours, growth media was replaced with Calcium 4 indicating dye in HBSS buffer containing 20 mM HEPES and 0.1% BSA and incubated for 1 hour at 37°C. Fluorescent signals were then monitored using the FLIPR Tetra (Molecular Devices, Sunnyvale, CA, USA) during which cells were stimulated with compounds. Dose-response curves were analyzed using GraphPad Prism v5.04 (La Jolla, CA, USA).

AtT-20 cell line [1] = assay: cell viability of AtT-20 cell line; format: cell-based, mouse; conditions: alamar-blue, 3–5 independent experiments, IGF-1 and Paclitaxel as controls
Protocol: (§3) The mouse corticotroph pituitary derived cell line AtT-20/D16v-F2 (ATCC® CRL-1795) was cultured and maintained in Dulbecco's Modified Eagle's Medium (DMEM) complemented with 10% FBS, 100 U/ml penicillin/streptomycin, 0.024 M of 2-(4(2-hydroxyethyl)-1-piperazine)-ethane sulfonic acid (HEPES), and maintained at 37°C and 5% CO2, under sterile conditions. CHO-K1 cell line(ATCC® CCL-61) expressing recombinant human GHSR1a (GenBank accession number U60179) or GHSR1b (GenBank accession number U60181) were cultured and maintained in Ham's F12 media (Corning #10-080-CV) supplemented with 10% FBS, 2 mM L-Glutamine and 0.4 mg/mL Geneticin.
As previously reported, cell viability was estimated using alamar-blue reagent (10,000 cells/well-plate; Biosource International, Camarillo, CA, USA)[30][50][52]. Briefly, cells were serum-starved for 12–16 h before the measurements and treated with serum-free medium containing 10% alamar-blue for 3 h. Reduction of alamar-blue reagent was quantified exciting at 560 nm and reading at 590 nm using the FlexStation III system (Molecular Devices, Sunnyvale, CA, USA). Subsequently, media was replaced by serum-containing alamar-blue free medium and incubated for additional 24–72 h, measuring the alamar-blue reduction every 24 h. […]

AtT-20 cell line [2] = assay: ACTH secretion from AtT-20 cell line; format: cell-based, mouse; conditions: 4 h, 3–5 independent experiments
Protocol: as §3
To examine the effects of ghrelin system components (4- and/or 24 h-incubation) on pituitary hormone release from primary pituitary adenoma and/or AtT-20 cell line, 100,000–200,000 cell/well were used. As previously reported, hormone concentrations were measured in the culture media derived from human samples according to the pituitary adenoma type using commercial ELISAs [growth hormone, GH; adrenocorticotropin, ACTH; and prolactin, PRL (reference numbers: EIA-3552, EIA-3647 and EIA-1291, respectively; DRG, Mountainside, NJ, USA)] following the manufacturer's instructions. All the information regarding specificity, detectability, and reproducibility for each of the assays can be accessed at the web site of the company.

Compound: 5′-GAGTCCTAAACAGACTGTT-3′ (siRNA; other strand not given here) [In1-ghrelin siRNA]
- cell viability after In1-ghrelin silencing (NFPAs): reduced cell viability
- silencing of In1-ghrelin expression (In1-ghrelin mRNA): more robust silencing efficiency of In1-ghrelin, but not native ghrelin
- silencing of In1-ghrelin expression (In1-ghrelin mRNA; listed as specific siRNAs): decrease of In1-ghrelin mRNA expression
- ghrelin mRNA expression after In1-ghrelin silencing (In1-ghrelin mRNA; selectivity vs native ghrelin): no significant decrease of ghrelin mRNA expression
- cell viability after In1-ghrelin silencing (GH-omas): reduced cell viability

Compound: CCCCCCCC(=O)OC[C@H](NC(=O)[C@H](CO)NC(=O)CN)C(=O)N[C@@H](Cc1ccccc1)C(=O)N[C@@H](CC(C)C)C(=O)N[C@@H](CO)C(=O)N1CCC[C@H]1C(=O)N[C@@H](CCC(=O)O)C(=O)N[C@@H](Cc1c[nH]cn1)C(=O)N[C@@H](CCC(N)=O)C(=O)N[C@@H](CCCNC(=N)N)C(=O)N[C@H](C(=O)N[C@@H](CCC(N)=O)C(=O)N[C@H](C(=O)N[C@@H](CCCNC(=N)N)C(=O)N1CCC[C@H]1C(=O)N1CCC[C@H]1C(=O)N[C@@H](Cc1c[nH]cn1)C(=O)N[C@@H](CCCCN)C(=O)O)C(C)C)C(C)C [In1-19] (H-GSS(Octanoyl)FLSPEHQRVQVRPPHK-OH)
- pEC50 (recombinant human GHSR1b): < 5.52

Compound: GSSFLSPEHQKAQVSQSVSLSPHIYPDLCVCV [In2-ghrelin, 32-aa mouse In2-ghrelin derived peptide, murine counterpart of In1-ghrelin]
- cell viability (AtT-20 cell line [1]): stimulated cell viability; also recorded: increased cell viability
- basal ACTH release (AtT-20 cell line [2]): significantly increased basal ACTH release

Compound: CCCCCCCC(=O)OC[C@H](NC(=O)[C@H](CO)NC(=O)CN)C(=O)N[C@@H](Cc1ccccc1)C(=O)N[C@@H](CC(C)C)C(=O)N[C@@H](CO)C(=O)N1CCC[C@H]1C(=O)N[C@@H](CCC(=O)O)C(=O)N[C@@H](Cc1c[nH]cn1)C(=O)N[C@@H](CCC(N)=O)C(=O)N[C@@H](CCCNC(=N)N)C(=O)N[C@H](C(=O)N[C@@H](CCC(N)=O)C(=O)N[C@H](C(=O)N[C@@H](CCCNC(=N)N)C(=O)N1CCC[C@H]1C(=O)N1CCC[C@H]1C(=O)N[C@@H](Cc1c[nH]cn1)C(=O)N[C@@H](CCCCN)C(=O)N[C@@H](C)C(=O)N1CCC[C@H]1C(=O)N[C@@H](Cc1c[nH]cn1)C(=O)N[C@H](C(=O)N[C@H](C(=O)N1CCC[C@H]1C(=O)N[C@@H](C)C(=O)N[C@@H](CC(C)C)C(=O)N1CCC[C@H]1C(=O)N[C@@H](CC(C)C)C(=O)N[C@@H](CO)C(=O)N[C@@H](CC(N)=O)C(=O)N[C@@H](CCC(N)=O)C(=O)N[C@@H](CC(C)C)C(=O)N[C@@H](CS)C(=O)N[C@@H](CC(=O)O)C(=O)N[C@@H](CC(C)C)C(=O)N[C@@H](CCC(=O)O)C(=O)N[C@@H](CCC(N)=O)C(=O)N[C@@H](CCC(N)=O)C(=O)N[C@@H](CCCNC(=N)N)C(=O)O)C(C)C)C(C)C)C(C)C)C(C)C [In1-40] (H-GSS(Octanoyl)FLSPEHQRVQVRPPHKAPHVVPALPLSNQLCDLEQQR-OH)
- pEC50 (recombinant human GHSR1b): < 5.52
